Results on 4 compounds are retold here after patent US20170283396A1, “DIAMINOHETEROARYL SUBSTITUTED INDAZOLES” (Bayer Pharma Aktiengesellschaft, priority 2013, published 2017).

For test [1], the target named is T1, catalytic domain of human Bub1 (amino acids 704-1085) (Homo sapiens, UniProt O43683).
T1 construct: catalytic domain of human Bub1 (amino acids 704-1085); His6 (N); made in house; host or cells: Hi5 insect cells
Kind of test: Bub1 kinase assay (TR-FRET). It is filed as biochemical. The procedure:
To this end, 100-fold concentrated compound solutions (in DMSO) were previously prepared by serial dilution (1:3.4) of 2 mM stocks in a clear low volume 384-well source microtiter plate (Greiner Bio-One, Frickenhausen, Germany), from which 50 nl of compounds were transferred into a black low volume test microtiter plate from the same supplier. […] The resulting mixture (5 μL final volume) was incubated at […] during 60 min., and the reaction was stopped by the addition of 5 μL of an aqueous EDTA-solution (50 mM EDTA, in 100 mM HEPES pH 7.5 and 0.2% (w/v) bovine serum albumin) which also contained the TR-FRET detection reagents (0.2 μM streptavidin-XL665 [Cisbio Bioassays, Codolet, France] and 1 nM anti-phosho-Serine antibody [Merck Millipore, cat. #35-001] and 0.4 nM LANCE EU-W1024 labeled anti-mouse IgG antibody [Perkin-Elmer, product no. AD0077, alternatively a Terbium-cryptate-labeled anti-mouse IgG antibody from Cisbio Bioassays can be used]). The stopped reaction mixture was further incubated 1 h at 22° C. in order to allow the formation of complexes between peptides and detection reagents. Subsequently, the amount of product was evaluated by measurement of the resonance energy transfer from the Eu-chelate-antibody complex recognizing the Phosphoserine residue to the streptavidin-XL665 bound to the biotin moiety of the peptide. […] IC50 values were calculated by fitting the normalized inhibition data to a 4-parameter logistic equation (Minimum, Maximum, IC50, Hill; Y=Max+(Min−Max)/(1+(X/IC50)Hill)).
A general note: TR-FRET usually uses a lanthanide donor and a delayed reading to cut background.

The next test deals with HeLa cell line. As to the kind of experiment: Proliferation assay (HeLa cell line). It is filed as cell-based. As to conditions: Homo sapiens, 96 h, read-out: Biological Assay 2: Proliferation assay (HeLa cell line) median IC50. The procedure:
(§1) Cultivated tumor cells (cells were ordered from ATCC, except HeLa-MaTu and HeLa-MaTu-ADR, which were ordered from EPO-GmbH, Berlin) were plated at a density of 1000 to 5000 cells/well, depending on the growth rate of the respective cell line, in a 96-well multititer plate in 200 μL of their respective growth medium supplemented 10% fetal calf serum. After 24 hours, the cells of one plate (zero-point plate) were stained with crystal violet (see below), while the medium of the other plates was replaced by fresh culture medium (200 μL), to which the test substances were added in various concentrations (0 μM, as well as in the range of 0.001-10 μM; the final concentration of the solvent dimethyl sulfoxide was 0.5%). The cells were incubated for 4 days in the presence of test substances. Cell proliferation was determined by staining the cells with crystal violet: the cells were fixed by adding 20 μl/measuring point of an 11% glutaric aldehyde solution for 15 minutes at room temperature. After three washing cycles of the fixed cells with water, the plates were dried at room temperature. The cells were stained by adding 100 μl/measuring point of a 0.1% crystal violet solution (pH 3.0). After three washing cycles of the stained cells with water, the plates were dried at room temperature. The dye was dissolved by adding 100 μl/measuring point of a 10% acetic acid solution. Absorption was determined by photometry at a wavelength of 595 nm. The change of cell number, in percent, was calculated by normalization of the measured values to the absorption values of the zero-point plate (=0%) and the absorption of the untreated (0 μm) cells (=100%). The IC50 values were determined by means of a 4 parameter fit using the company's own software.

In the next test the test system is HeLa-MaTu-ADR cell line. Kind of test: Proliferation assay (HeLa-MaTu-ADR cell line). Particulars: 96 h, read-out: Biological Assay 2: Proliferation assay (HeLa-MaTu-ADR cell line) median IC50. The test is classed as cell-based. The procedure: as §1
For the next test, the system named is NCI-H460 cell line. Kind of test: Proliferation assay (NCI-H460 cell line). As to conditions: Homo sapiens, read-out: Biological Assay 2: Proliferation assay (NCI-H460 cell line) median IC50. It is filed as cell-based. The procedure: as §1
Another test has as its system DU145 cell line. As to the kind of experiment: Proliferation assay (DU145 cell line). It is filed as cell-based. Particulars: Homo sapiens, DU-145, 96 h, read-out: Biological Assay 2: Proliferation assay (DU145 cell line) median IC50. On the procedure:
as §1

The next test concerns Caco2 cell line. Kind of test: Proliferation assay (Caco2 cell line). The test is classed as cell-based. As to conditions: Homo sapiens, Caco-2, 96 h, read-out: Biological Assay 2: Proliferation assay (Caco2 cell line) median IC50. The procedure:
as §1

For another test, the system named is B16F10 cell line. As to the kind of experiment: Proliferation assay (B16F10 cell line). It is filed as cell-based. As to conditions: Mus musculus, B16-F10, 96 h, read-out: Biological Assay 2: Proliferation assay (B16F10 cell line) median IC50. On the procedure:
as §1

Setting [2] is: TR-FRET, 10 μM ATP, 1 μM peptide substrate, read-out: Biological Assay 1: Bub1 kinase assay median IC50.

The structures appear in SMILES notation. Read-outs that look alike come from different tables or passages of the source.

T1 sequence (O43683 704-1085): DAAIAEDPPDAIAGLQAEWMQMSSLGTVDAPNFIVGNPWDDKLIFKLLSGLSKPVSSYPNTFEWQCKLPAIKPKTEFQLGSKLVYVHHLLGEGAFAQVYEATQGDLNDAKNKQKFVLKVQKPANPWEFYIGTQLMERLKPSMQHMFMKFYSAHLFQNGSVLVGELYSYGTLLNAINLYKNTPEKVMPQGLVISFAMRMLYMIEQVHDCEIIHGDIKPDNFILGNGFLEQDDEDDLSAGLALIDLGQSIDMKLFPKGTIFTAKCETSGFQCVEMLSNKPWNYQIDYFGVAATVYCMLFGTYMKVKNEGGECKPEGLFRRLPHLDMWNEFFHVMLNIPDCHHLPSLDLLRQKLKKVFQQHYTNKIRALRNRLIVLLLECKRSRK

On to `Fc1ccccc1Cn1nc(-c2nc(Nc3ccncc3)cc(Nc3ccncc3)n2)c2ccccc21` [Example 2-1-2, 2-[1-(2-fluorobenzyl)-1H-indazol-3-yl]-N,N′-di(pyridin-4-yl)pyrimidine-4,6-diamine], for which the IC50 in test [1] is over 20000 nM; with HeLa cell line (cervical cancer, 4 days incubation, crystal violet staining), 490 nM; in the test on HeLa-MaTu-ADR cell line (HeLa-MaTu-ADR, cervical cancer, 4 days incubation, crystal violet staining) it was 1500 nM; in the test on NCI-H460 cell line (96 h, NCI-H460, non-small cell lung cancer, 4 days incubation, crystal violet staining) it was 470 nM; in the test on DU145 cell line (DU145, prostate cancer, 4 days incubation, crystal violet staining) it was 360 nM; in the test on Caco2 cell line (Caco2, colon cancer, 4 days incubation, crystal violet staining) it was 1100 nM. The IC50 with B16F10 cell line (B16F10, melanoma, 4 days incubation, crystal violet staining) is 250 nM.
Regarding `CCOc1cc(F)c(Cn2nc(-c3nc(Nc4ccncc4)c(OC)c(Nc4ccncc4)n3)c3ccccc32)c(F)c1` [Example 2-4-2, 2-[1-(4-ethoxy-2,6-difluorobenzyl)-1H-indazol-3-yl]-5-methoxy-N,N′-di(pyridin-4-yl)pyrimidine-4,6-diamine], the IC50 in test [1] (setting [2]) was found to be 430 nM; in the test with HeLa cell line it was 1500 nM; with HeLa-MaTu-ADR cell line, 1100 nM; with NCI-H460 cell line (NCI-H460, 96 h) it was 4300 nM; with DU145 cell line, 3700 nM; with Caco2 cell line, 420 nM. Moreover, the IC50 in the test with B16F10 cell line came to 540 nM.
On to `CCOc1cc(F)c(Cn2nc(-c3nc(Nc4ccncc4)nc(Nc4ccncc4)n3)c3ccccc32)c(F)c1` [Example 2-4-5, 6-[1-(4-ethoxy-2,6-difluorobenzyl)-1H-indazol-3-yl]-N,N′-di(pyridin-4-yl)-1,3,5-triazine-2,4-diamine], for which the IC50 in test [1] (setting [2]) was determined as 43 nM; in the test with HeLa cell line it was 940 nM; in the test with HeLa-MaTu-ADR cell line, 390 nM; with NCI-H460 cell line (NCI-H460, 96 h), 750 nM; in the test with DU145 cell line, 1200 nM; in the test with Caco2 cell line, 480 nM. In the test with B16F10 cell line, the IC50 was found to be 780 nM.
Take `CCOc1cc(F)c(Cn2nc(-c3nc(Nc4ccncc4)c(OCCO)c(Nc4ccncc4)n3)c3ccccc32)c(F)c1` [Example 2-5-2, 2-({2-[1-(4-ethoxy-2,6-difluorobenzyl)-1H-indazol-3-yl]-4,6-bis-(pyridin-4-ylamino)pyrimidin-5-yl}oxy)ethanol]: the IC50 was 170 nM in test [1] (setting [2]); 1200 nM in the test on HeLa cell line; 280 nM with HeLa-MaTu-ADR cell line; 590 nM with NCI-H460 cell line (NCI-H460, 96 h); 940 nM in the test with DU145 cell line; 400 nM in the test with Caco2 cell line. The IC50 in the test with B16F10 cell line is 520 nM.
